Measurements published in patent US20260022142A1, “MACROCYCLIC IMMUNOMODULATORS” (Bristol-Myers Squibb Company, priority 2022, published 2026).
pIC50: −log10 of the molar value. Numbered stars: 1 amine (or outer) side, 2 acyl side, 3 side chain; on linkers, the order of the positions; unused ones are H or OH. Bridge positions count the residues as written; N and C are the ends. Square brackets hold non-standard residues; d marks the D form. Peptide text beside a SMILES is read from it. * marks the point of attachment. ξ: configuration not given here. X9 = O=C([C@H](Cc1cc(F)c(F)cc1F)N[*:1])[*:2]; Bip = N[C@@H](Cc1ccc(-c2ccccc2)cc1)C(=O)O; Pip(4-aza) = O=C(O)[C@@H]1CNCCN1; 4Pal = N[C@@H](Cc1ccncc1)C(=O)O; X1 = O=C(CN1CCN([*:1])CC1)[*:2]; Cha = N[C@@H](CC1CCCCC1)C(=O)O; Thr(3ξ) = CC(O)[C@H](N)C(=O)O; Carboxymethyl = O=C(O)C*; Orn = NCCC[C@H](N)C(=O)O; Pra = C#CC[C@H](N)C(=O)O; Aun = NCCCCCCCCCCC(=O)O; Dab = NCC[C@H](N)C(=O)O; Dap = NC[C@H](N)C(=O)O; AEEA = NCCOCCOCC(=O)O

Target: T1, PD-1/PD-L1 interaction (PE-labeled human PD-L1-Ig binding to Jurkat cell line over-expressing human PD-1) (Homo sapiens, UniProt Q15116)
T1 construct: expressed in transfected cells; host or cells: Jurkat
T1 sequence (Q15116 25-288): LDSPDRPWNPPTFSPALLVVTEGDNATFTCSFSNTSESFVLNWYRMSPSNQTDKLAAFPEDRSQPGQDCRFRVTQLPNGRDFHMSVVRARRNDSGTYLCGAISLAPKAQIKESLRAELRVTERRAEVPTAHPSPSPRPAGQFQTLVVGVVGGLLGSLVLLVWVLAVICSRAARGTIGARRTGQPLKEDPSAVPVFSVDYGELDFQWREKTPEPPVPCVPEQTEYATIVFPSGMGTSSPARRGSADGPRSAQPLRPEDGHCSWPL
Assay: Jurkat-PD-1 Cell Binding High-Content Screening Assay (CBA)
Format: cell-based
Conditions: Jurkat cell line over-expressing human PD-1; PE-labeled PD-L1-Ig 20 nM final; read-out: Jurkat hPD1-PDL1 IC50
In short: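 Jurkat-hPD-1 cells, DMEM/10% FCS; cpd 2 h 37° C; PE-PD-L1-Ig 20 nM final, 1 h; 4% PFA fix + Hoechst 33342, 3× dPBS wash; high-content imaging read-out.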

C#CC[C@H](NC(=O)COCCOCCNC(=O)[C@H](CCCCN)NC(=O)[C@@H]1CSCC(=O)N[C@@H](Cc2ccncc2)C(=O)N[C@@H](Cc2ccc(OCC(=O)O)cc2)C(=O)N[C@@H](CC(=O)O)C(=O)N[C@@H](Cc2c[nH]c3ccccc23)C(=O)N[C@@H](C(C)C)C(=O)N[C@@H](Cc2ccc(-c3ccccc3)cc2)C(=O)N[C@@H]([C@@H](C)CC)C(=O)N[C@@H](CCCN)C(=O)N[C@H](CC(C)C)C(=O)N[C@@H](CCN)C(=O)N[C@@H](CC(C)C)C(=O)N[C@@H](C(C)C)C(=O)N[C@@H]([C@@H](C)O)C(=O)N1)C(=O)NCCCCCCCCCCC(=O)O [Compound 1208] ({CH2CO}-[4Pal]Y(Carboxymethyl)DWV[Bip]I[Orn][dL][Dab]LVTCK[AEEA][Pra][Aun]-OH; thioether N-14)
pIC50: 7.57

C#CC[C@H](NC(=O)COCCOCCNC(=O)[C@H](CCCNC(=N)N)NC(=O)[C@@H]1CSCC(=O)N[C@@H](Cc2ccncc2)C(=O)N[C@@H](Cc2ccc(OCC(=O)O)cc2)C(=O)N[C@@H](CC(=O)O)C(=O)N[C@@H](Cc2c[nH]c3ccccc23)C(=O)N[C@@H](C(C)C)C(=O)N[C@@H](Cc2ccc(-c3ccccc3)cc2)C(=O)N[C@@H]([C@@H](C)CC)C(=O)N[C@@H](CCCN)C(=O)N[C@H](CC(C)C)C(=O)N[C@@H](CCN)C(=O)N[C@@H](CC(C)C)C(=O)N[C@@H](C(C)C)C(=O)N[C@@H]([C@@H](C)O)C(=O)N1)C(=O)NCCCCCCCCCCC(=O)O [Compound 1209] ({CH2CO}-[4Pal]Y(Carboxymethyl)DWV[Bip]I[Orn][dL][Dab]LVTCR[AEEA][Pra][Aun]-OH; thioether N-14)
pIC50: 7.45

C#CC[C@H](NC(=O)COCCOCCNC(=O)[C@H](Cc1cnc[nH]1)NC(=O)[C@@H]1CSCC(=O)N[C@@H](Cc2ccncc2)C(=O)N[C@@H](Cc2ccc(OCC(=O)O)cc2)C(=O)N[C@@H](CC(=O)O)C(=O)N[C@@H](Cc2c[nH]c3ccccc23)C(=O)N[C@@H](C(C)C)C(=O)N[C@@H](Cc2ccc(-c3ccccc3)cc2)C(=O)N[C@@H]([C@@H](C)CC)C(=O)N[C@@H](CCCN)C(=O)N[C@H](CC(C)C)C(=O)N[C@@H](CCN)C(=O)N[C@@H](CC(C)C)C(=O)N[C@@H](C(C)C)C(=O)N[C@@H]([C@@H](C)O)C(=O)N1)C(=O)NCCCCCCCCCCC(=O)O [Compound 1210] ({CH2CO}-[4Pal]Y(Carboxymethyl)DWV[Bip]I[Orn][dL][Dab]LVTCH[AEEA][Pra][Aun]-OH; thioether N-14)
pIC50: 7.65

C#CC[C@H](NC(=O)COCCOCCNC(=O)[C@@H]1CSCC(=O)N[C@@H](Cc2ccncc2)C(=O)N[C@@H](Cc2ccc(OCC(=O)O)cc2)C(=O)N[C@@H](CC(=O)O)C(=O)N[C@@H](Cc2c[nH]c3ccccc23)C(=O)N[C@@H](C(C)C)C(=O)N[C@@H](Cc2ccc(-c3ccccc3)cc2)C(=O)N[C@@H]([C@@H](C)CC)C(=O)N[C@@H](CCCN)C(=O)N[C@H](CC(C)C)C(=O)N[C@@H](CCN)C(=O)N[C@@H](CC(C)C)C(=O)N[C@@H](C(C)C)C(=O)N[C@@H]([C@@H](C)O)C(=O)N1)C(=O)N[C@@H](CN)C(=O)NCCCCCCCCCCC(=O)O [Compound 1211] ({CH2CO}-[4Pal]Y(Carboxymethyl)DWV[Bip]I[Orn][dL][Dab]LVTC[AEEA][Pra][Dap][Aun]-OH; thioether N-14)
pIC50: 7.81

C#CC[C@H](NC(=O)COCCOCCNC(=O)[C@@H]1CSCC(=O)N[C@@H](Cc2ccncc2)C(=O)N[C@@H](Cc2ccc(OCC(=O)O)cc2)C(=O)N[C@@H](CC(=O)O)C(=O)N[C@@H](Cc2c[nH]c3ccccc23)C(=O)N[C@@H](C(C)C)C(=O)N[C@@H](Cc2ccc(-c3ccccc3)cc2)C(=O)N[C@@H]([C@@H](C)CC)C(=O)N[C@@H](CCCN)C(=O)N[C@H](CC(C)C)C(=O)N[C@@H](CCN)C(=O)N[C@@H](CC(C)C)C(=O)N[C@@H](C(C)C)C(=O)N[C@@H]([C@@H](C)O)C(=O)N1)C(=O)N[C@@H](CCN)C(=O)NCCCCCCCCCCC(=O)O [Compound 1212] ({CH2CO}-[4Pal]Y(Carboxymethyl)DWV[Bip]I[Orn][dL][Dab]LVTC[AEEA][Pra][Dab][Aun]-OH; thioether N-14)
pIC50: 7.48

C#CC[C@H](NC(=O)COCCOCCNC(=O)[C@@H]1CSCC(=O)N[C@@H](Cc2ccncc2)C(=O)N[C@@H](Cc2ccc(OCC(=O)O)cc2)C(=O)N[C@@H](CC(=O)O)C(=O)N[C@@H](Cc2c[nH]c3ccccc23)C(=O)N[C@@H](C(C)C)C(=O)N[C@@H](Cc2ccc(-c3ccccc3)cc2)C(=O)N[C@@H]([C@@H](C)CC)C(=O)N[C@@H](CCCN)C(=O)N[C@H](CC(C)C)C(=O)N[C@@H](CCN)C(=O)N[C@@H](CC(C)C)C(=O)N[C@@H](C(C)C)C(=O)N[C@@H]([C@@H](C)O)C(=O)N1)C(=O)N[C@@H](CCCN)C(=O)NCCCCCCCCCCC(=O)O [Compound 1213] ({CH2CO}-[4Pal]Y(Carboxymethyl)DWV[Bip]I[Orn][dL][Dab]LVTC[AEEA][Pra][Orn][Aun]-OH; thioether N-14)
pIC50: 7.48

C#CC[C@H](NC(=O)COCCOCCNC(=O)[C@@H]1CSCC(=O)N[C@@H](Cc2ccncc2)C(=O)N[C@@H](Cc2ccc(OCC(=O)O)cc2)C(=O)N[C@@H](CC(=O)O)C(=O)N[C@@H](Cc2c[nH]c3ccccc23)C(=O)N[C@@H](C(C)C)C(=O)N[C@@H](Cc2ccc(-c3ccccc3)cc2)C(=O)N[C@@H]([C@@H](C)CC)C(=O)N[C@@H](CCCN)C(=O)N[C@H](CC(C)C)C(=O)N[C@@H](CCN)C(=O)N[C@@H](CC(C)C)C(=O)N[C@@H](C(C)C)C(=O)N[C@@H]([C@@H](C)O)C(=O)N1)C(=O)N[C@@H](CCCCN)C(=O)NCCCCCCCCCCC(=O)O [Compound 1214] ({CH2CO}-[4Pal]Y(Carboxymethyl)DWV[Bip]I[Orn][dL][Dab]LVTC[AEEA][Pra]K[Aun]-OH; thioether N-14)
pIC50: 7.86

C#CC[C@H](NC(=O)COCCOCCNC(=O)[C@@H]1CSCC(=O)N[C@@H](Cc2ccncc2)C(=O)N[C@@H](Cc2ccc(OCC(=O)O)cc2)C(=O)N[C@@H](CC(=O)O)C(=O)N[C@@H](Cc2c[nH]c3ccccc23)C(=O)N[C@@H](C(C)C)C(=O)N[C@@H](Cc2ccc(-c3ccccc3)cc2)C(=O)N[C@@H]([C@@H](C)CC)C(=O)N[C@@H](CCCN)C(=O)N[C@H](CC(C)C)C(=O)N[C@@H](CCN)C(=O)N[C@@H](CC(C)C)C(=O)N[C@@H](C(C)C)C(=O)N[C@@H]([C@@H](C)O)C(=O)N1)C(=O)N[C@@H](CCCNC(=N)N)C(=O)NCCCCCCCCCCC(=O)O [Compound 1215] ({CH2CO}-[4Pal]Y(Carboxymethyl)DWV[Bip]I[Orn][dL][Dab]LVTC[AEEA][Pra]R[Aun]-OH; thioether N-14)
pIC50: 7.86

C#CC[C@H](NC(=O)COCCOCCNC(=O)[C@@H]1CSCC(=O)N[C@@H](Cc2ccncc2)C(=O)N[C@@H](Cc2ccc(OCC(=O)O)cc2)C(=O)N[C@@H](CC(=O)O)C(=O)N[C@@H](Cc2c[nH]c3ccccc23)C(=O)N[C@@H](C(C)C)C(=O)N[C@@H](Cc2ccc(-c3ccccc3)cc2)C(=O)N[C@@H]([C@@H](C)CC)C(=O)N[C@@H](CCCN)C(=O)N[C@H](CC(C)C)C(=O)N[C@@H](CCN)C(=O)N[C@@H](CC(C)C)C(=O)N[C@@H](C(C)C)C(=O)N[C@@H]([C@@H](C)O)C(=O)N1)C(=O)N[C@@H](Cc1cnc[nH]1)C(=O)NCCCCCCCCCCC(=O)O [Compound 1216] ({CH2CO}-[4Pal]Y(Carboxymethyl)DWV[Bip]I[Orn][dL][Dab]LVTC[AEEA][Pra]H[Aun]-OH; thioether N-14)
pIC50: 7.78

CC(C)C[C@@H]1NC(=O)[C@H](Cc2c[nH]c3ccccc23)NC(=O)[C@H](CC(=O)O)NC(=O)[C@H](Cc2ccncc2)NC(=O)[C@H](Cc2ccc(OCC(=O)O)cc2)NC(=O)CSC[C@@H](C(=O)N2CCNC[C@H]2C(=O)NCCCCCCCCCCC(=O)O)NC(=O)[C@H](C(C)O)NC(=O)[C@H](C(C)C)NC(=O)[C@H](CC2CCCCC2)NC(=O)[C@H](CCN)NC(=O)[C@@H](CC(C)C)NC(=O)[C@H](CCCN)NC(=O)[C@H](C(C)C)NC(=O)[C@H](Cc2ccc(-c3ccccc3)cc2)NC1=O (stereo partly drawn) [Compound 1223] ({CH2CO}-Y(Carboxymethyl)[4Pal]DWL[Bip]V[Orn][dL][Dab][Cha]V[Thr(3ξ)]C[Pip(4-aza)][Aun]-OH; thioether N-14)
pIC50: 6.87

CC(C)C[C@H]1NC(=O)[C@H](CCCN)NC(=O)[C@H](Cc2ccc(O)cc2)NC(=O)[C@H](Cc2ccc(-c3ccccc3)cc2)NC(=O)[C@H](Cc2ccc(OCC(=O)O)cc2)NC(=O)[C@H](Cc2cc(F)c(F)cc2F)NC(=O)[C@H](CC(=O)O)NC(=O)[C@H](Cc2ccc(OCC(=O)O)cc2)NC(=O)[C@H](CN)NC(=O)CSC[C@@H](C(=O)N[C@@H](CCN)C(=O)NCCOCCOCC(=O)NCCCCCCCCCCC(=O)O)NC(=O)[C@H](CCCN)NC(=O)[C@H](C(C)C)NC(=O)[C@H](CC2CCCCC2)NC(=O)[C@H](CCN)NC1=O [Compound 1224] ({CH2CO}-[Dap]Y(Carboxymethyl)D[X9]Y(Carboxymethyl)[Bip]Y[Orn][dL][Dab][Cha]V[Orn]C[Dab][AEEA][Aun]-OH; thioether N-14)
pIC50: 6.85

CC(C)C[C@@H]1NC(=O)[C@H](Cc2c[nH]c3ccccc23)NC(=O)[C@H](CC(=O)O)NC(=O)[C@H](Cc2ccncc2)NC(=O)[C@H](Cc2ccc(OCC(=O)O)cc2)NC(=O)CSC[C@@H](C(=O)N2CCN(CC(=O)NCCCCCCCCCCC(=O)O)CC2)NC(=O)[C@H](C(C)O)NC(=O)[C@H](C(C)C)NC(=O)[C@H](CC2CCCCC2)NC(=O)[C@H](CCN)NC(=O)[C@@H](CC(C)C)NC(=O)[C@H](CCCN)NC(=O)[C@H](C(C)C)NC(=O)[C@H](Cc2ccc(-c3ccccc3)cc2)NC1=O (stereo partly drawn) [Compound 1225] ({CH2CO}-Y(Carboxymethyl)[4Pal]DWL[Bip]V[Orn][dL][Dab][Cha]V[Thr(3ξ)]C[X1][Aun]-OH; thioether N-14)
pIC50: 6.77
